Measured values as given in article PMC9610943, “Truncated Pleurocidin Derivative with High Pepsin Hydrolysis Resistance to Combat Multidrug-Resistant Pathogens” (Pharmaceutics, 2022).
Where no end group is shown, it is not given here.

Legend:
[1] = tested on: P. cibarius HNCF44W (blaNDM-1+ tet(X6)); assay: organism not typed; assay type: cell-based
Experimental: (§1) S. aureus ATCC 29213, E. coli ATCC 25922, S. enteritidis ATCC 13076 and A. baumannii ATCC 19609 were obtained from the American Type Culture Collection (ATCC). The remaining strains used in the experiment were all preserved strains in our laboratory. All strains were cultured in nutrient broth overnight to the logarithmic phase at 37 °C prior to each experiment.
(§2) The MICs of all drugs were determined by micro-broth dilution method according to CLSI 2018 guidelines. Briefly, a single colony of the bacterial strain was transferred to 1 mL of Mueller Hilton broth (MHB) and overnight at 37 °C and then 10 μL were cultured in a new 1 mL medium for 4 to 6 h, and then the bacterial culture at the logarithmic phase was diluted to 1 × 10^6 CFUs/mL. The assay was performed by adding 100 μL of each peptide solution at various concentrations (0.25 to 128 μg/mL) and 100 μL of diluted bacterial culture to different wells of a 96-well microtiter plate (Corning, NY, USA). After incubation at 37 °C for 16 to 18 h and then read its MIC value. MIC value is defined as the lowest drug concentration without visible bacteria.

[2] = tested on: E. coli B2; assay type: cell-based; details: for MIC after treatment at 121 °C / MIC in DMEM (10%) / MIC in Plasma (10%) / MIC in Serum (10%) / MIC in presence of Ca^2+ / MIC in presence of K^+ / MIC in presence of Mg^2+ / MIC in presence of Na^+ / MIC, Control: B2; for MIC after Papain treatment / MIC after Pepsin treatment / MIC after Trypsin treatment / MIC after treatment at 40 °C / MIC after treatment at 60 °C / MIC after treatment at 80 °C / MIC after treatment at 100 °C / MIC after treatment at pH 2 / MIC after treatment at pH 4 / MIC after treatment at pH 6 / MIC after treatment at pH 8 / MIC after treatment at pH 10 / MIC after treatment at pH 12: B2, 1 h
Experimental: as §2
(§3) Then, the antibacterial activity of the peptides affected by different temperatures and pH were determined according to the determination steps of MICs test.
(§4) In MHB medium, Na^+, K^+, Mg^2+ and Ca^2+ with the final concentrations of 10 mM, fetal bovine serum, plasma or DMEM medium (Hyclone, Logan, UT, USA) with the final concentrations of 10% was added, and then MIC values were measured to evaluate the effects of different cations, serum and plasma on the antibacterial activity of peptides.
(§5) The peptide was incubated with protease (pepsin, trypsin and papain) (Solarbio, Beijing, China) with a final concentration of 1 mg/mL at 37 °C for 1 h, then the mixture of peptide and protease was heated at 100 °C for 30 min, then centrifuged at 13,000× g for 30 min, and the supernatant was taken for MIC determination.

[3] = tested on: MRSA 1530; assay: microbe, parasite or virus in culture; assay type: cell-based, Staphylococcus aureus; details: 1530
Experimental: as §1, §2

[4] = tested on: MRSA T144; assay: microbe, parasite or virus in culture; assay type: cell-based, Staphylococcus aureus; details: T144
Experimental: as §1, §2

[5] = tested on: A. baumannii ATCC 19609; assay: microbe, parasite or virus in culture; assay type: cell-based; details: ATCC 19609
Experimental: as §1, §2

[6] = tested on: E. faecalis A4 (VRE, VanA); assay: microbe, parasite or virus in culture; assay type: cell-based; details: A4 (VRE, VanA)
Experimental: as §1, §2

[7] = tested on: S. aureus ATCC 29213; assay: microbe, parasite or virus in culture; assay type: cell-based; details: ATCC 29213
Experimental: as §1, §2

[8] = tested on: E. coli 1F28 (tet(X4)); assay: microbe, parasite or virus in culture; assay type: cell-based; details: 1F28 (tet(X4))
Experimental: as §1, §2

[9] = tested on: S. aureus 215 (cfr + LZD^R); assay: microbe, parasite or virus in culture; assay type: cell-based; details: S. aureus 215 (cfr + LZD^R); micro-broth dilution CLSI 2018, MHB, 37 °C, 16 to 18 h
Experimental: as §1, §2

[10] = tested on: E. coli G6 (blaNDM-5); assay: microbe, parasite or virus in culture; assay type: cell-based; details: G6 (blaNDM-5)
Experimental: as §1, §2

[11] = tested on: E. coli B2 (blaNDM-5 + mcr-1); assay: microbe, parasite or virus in culture; assay type: cell-based; details: B2 (blaNDM-5 + mcr-1)
Experimental: as §1, §2

[12] = tested on: S. enteritidis ATCC 13076; assay: microbe, parasite or virus in culture; assay type: cell-based; details: ATCC 13076
Experimental: as §1, §2

[13] = tested on: P. aeruginosa (VIM + tmexCD1-torJ1); assay: microbe, parasite or virus in culture; assay type: cell-based; details: VIM + tmexCD1-torJ1
Experimental: as §1, §2

[14] = tested on: E. coli C3 (blaNDM-1); assay: microbe, parasite or virus in culture; assay type: cell-based; details: C3 (blaNDM-1)
Experimental: as §1, §2

[15] = tested on: P. aeruginosa PA14; assay: microbe, parasite or virus in culture; assay type: cell-based; details: PA14
Experimental: as §1, §2

[16] = tested on: S. aureus G16 (RIF^R); assay: microbe, parasite or virus in culture; assay type: cell-based; details: S. aureus G16 (RIF^R); micro-broth dilution CLSI 2018, MHB, 37 °C, 16 to 18 h
Experimental: as §1, §2

[17] = tested on: E. coli G92 (mcr-1); assay: microbe, parasite or virus in culture; assay type: cell-based; details: G92 (mcr-1)
Experimental: as §1, §2

[18] = tested on: E. coli ATCC 25922; assay: microbe, parasite or virus in culture; assay type: cell-based; details: ATCC 25922
Experimental: as §1, §2

[19] = tested on: E. coli B3-1 (tet(X4)); assay: microbe, parasite or virus in culture; assay type: cell-based; details: B3-1 (tet(X4))
Experimental: as §1, §2

[20] = tested on: E. coli CP131 (mcr-3); assay: microbe, parasite or virus in culture; assay type: cell-based; details: CP131 (mcr-3)
Experimental: as §1, §2

[21] = tested on: MRSA T144; assay type: cell-based, Staphylococcus aureus; details: for MIC after treatment at 121 °C / MIC in DMEM (10%) / MIC in Plasma (10%) / MIC in Serum (10%) / MIC in presence of Ca^2+ / MIC in presence of K^+ / MIC in presence of Mg^2+ / MIC in presence of Na^+ / MIC, Control: T144
Experimental: as §2, §3, §4, §5

GWKKFFKKWKHVWK [GK-4]
16 µg/mL: MIC [3] | MIC [6] | MIC [8] | MIC [13] | MIC [15]
8 µg/mL: MIC [9] | MIC [16] | MIC [18] | MIC in Serum (10%) [21] | MIC in presence of Mg^2+ [21]
2 µg/mL: MIC after treatment at 121 °C [2] | MIC in Plasma (10%) [2] | MIC in presence of K^+ [2] | MIC in presence of Na^+ [2] | MIC, Control [2] | MIC after Pepsin treatment [2] | MIC after treatment at 40 °C [2] | MIC after treatment at 60 °C [2] | MIC after treatment at 80 °C [2] | MIC after treatment at 100 °C [2] | MIC after treatment at pH 6 [2] | MIC after treatment at pH 12 [2] | MIC [11] | MIC [14] | MIC [20] | MIC in DMEM (10%) [21] | MIC in presence of Na^+ [21] | MIC after treatment at 40 °C ([21]; T144, 1 h) | MIC after treatment at 60 °C ([21]; T144, 1 h) | MIC after treatment at 80 °C ([21]; T144, 1 h)
4 µg/mL: MIC [1] | MIC in DMEM (10%) [2] | MIC in Serum (10%) [2] | MIC [4] | MIC [5] | MIC [7] | MIC [10] | MIC [12] | MIC [17] | MIC [19] | MIC after treatment at 121 °C [21] | MIC in Plasma (10%) [21] | MIC in presence of K^+ [21] | MIC, Control [21] | MIC after treatment at 100 °C ([21]; T144, 1 h) | MIC after treatment at pH 2 ([21]; T144, 1 h) | MIC after treatment at pH 4 ([21]; T144, 1 h) | MIC after treatment at pH 6 ([21]; T144, 1 h) | MIC after treatment at pH 8 ([21]; T144, 1 h) | MIC after treatment at pH 10 ([21]; T144, 1 h) | MIC after treatment at pH 12 ([21]; T144, 1 h)
>128 µg/mL: MIC in presence of Ca^2+ [2] | MIC after Papain treatment [2] | MIC after Trypsin treatment [2] | MIC in presence of Ca^2+ [21] | MIC after Papain treatment ([21]; T144, 1 h) | MIC after Trypsin treatment ([21]; T144, 1 h)
32 µg/mL: MIC in presence of Mg^2+ [2]
1 µg/mL: MIC after treatment at pH 2 [2] | MIC after treatment at pH 4 [2] | MIC after treatment at pH 8 [2] | MIC after treatment at pH 10 [2]

GWKSFFKKFKHVWK [GK-3]
2 µg/mL: MIC in presence of K^+ [2] | MIC in presence of Na^+ [2] | MIC after treatment at 40 °C [2] | MIC after treatment at 60 °C [2] | MIC after treatment at 80 °C [2] | MIC after treatment at pH 4 [2] | MIC after treatment at pH 6 [2] | MIC after treatment at pH 8 [2] | MIC after treatment at pH 10 [2] | MIC after treatment at pH 12 [2] | MIC [17] | MIC [19] | MIC [20] | MIC in presence of Na^+ [21] | MIC after treatment at 60 °C ([21]; T144, 1 h)
32 µg/mL: MIC in presence of Mg^2+ [2] | MIC [6]
16 µg/mL: MIC [3] | MIC [8] | MIC [13]
0.5 µg/mL: MIC in Plasma (10%) [2]
64 µg/mL: MIC after Pepsin treatment [2] | MIC [15] | MIC after Pepsin treatment ([21]; T144, 1 h)
4 µg/mL: MIC after treatment at 121 °C [2] | MIC in DMEM (10%) [2] | MIC, Control [2] | MIC after treatment at 100 °C [2] | MIC after treatment at pH 2 [2] | MIC [5] | MIC [7] | MIC [9] | MIC [10] | MIC [11] | MIC [12] | MIC [14] | MIC in DMEM (10%) [21] | MIC in Plasma (10%) [21] | MIC in presence of K^+ [21] | MIC after treatment at 40 °C ([21]; T144, 1 h) | MIC after treatment at 80 °C ([21]; T144, 1 h) | MIC after treatment at pH 2 ([21]; T144, 1 h) | MIC after treatment at pH 4 ([21]; T144, 1 h) | MIC after treatment at pH 6 ([21]; T144, 1 h) | MIC after treatment at pH 8 ([21]; T144, 1 h) | MIC after treatment at pH 10 ([21]; T144, 1 h) | MIC after treatment at pH 12 ([21]; T144, 1 h)
>128 µg/mL: MIC in presence of Ca^2+ [2] | MIC after Papain treatment [2] | MIC after Trypsin treatment [2] | MIC in presence of Ca^2+ [21] | MIC after Papain treatment ([21]; T144, 1 h) | MIC after Trypsin treatment ([21]; T144, 1 h)
8 µg/mL: MIC [1] | MIC in Serum (10%) [2] | MIC [4] | MIC [16] | MIC [18] | MIC after treatment at 121 °C [21] | MIC in Serum (10%) [21] | MIC in presence of Mg^2+ [21] | MIC, Control [21] | MIC after treatment at 100 °C ([21]; T144, 1 h)
